Key:
[1] = tested on: AKT; assay: AKT phosphorylation and expression by western blot in MeWo melanoma cells; assay type: cell-based
Protocol: (§1) (A) MeWo melanoma cells growing in 60 mm plates were treated with the indicated concentration of the inhibitor for 4 h before proteins were prepared for western blot analysis using the indicated antibodies. Level of beta.actin was monitored as a control for protein loading. (B) Experiment was performed as indicated in panel A, except that cells were harvested after 24 h for analysis of cell death using trypan blue staining. (C) Melanoma (MeWo), prostate cancer (PC3) and breast cancer (MCF7) cells were treated with BI-69A11 at the indicated concentrations; levels of AKT phosphorylation or expression were assessed 4 h later. The level of beta.actin used as a control for protein loading. (D) Experiment was performed as indicated in panel C, except that cells were harvested after 4 h for analysis of cell death using trypan blue staining.
(§2) To evaluate the effectiveness of BI-69A11 on melanoma cells we assessed the effect of different concentrations on AKT phosphorylation in MeWO cells.
For western blotting techniques, cells were lysed in RIPA buffer containing 50 mM TrisHCl pH7.4, 150 mM NaCl, 2 mM EDTA, 1% NP-40, 0.1% SDS. The protein concentration was estimated using the Coomassie Protein assay kit (Thermo Scientific, Rockford, Ill., USA). Equal concentrations of cell lysate (30-50 ug) were resolved on a 10% polyacrylamide gel and transferred onto Nitrocellulose membrane (GE Amersham). Membranes were blocked for 1-2 hours in either 3% BSA or 5% nonfat dried milk in Tris-buffered saline containing 0.05% Tween 20. Primary antibody incubations were performed overnight at 4° C. with shaking. The blots were washed followed by incubation with a secondary antibody incubation for 1 hour at room temperature. After washing, the blots were scanned on the Odyssey Licor scanner at the appropriate wavelength and the image was captured using the Odyssey software.

[2] = tested on: MeWo melanoma cells; assay: Cell death by trypan blue staining, MeWo; assay type: cell-based
Protocol: as §1, §2
For the proliferation assays, cells were treated as described above. However, instead of scraping cells into the serum-free medium, floating cells were collected in a 15 mL centrifuge tube whereas adherent cells trypsinized gently. The total cell population was pooled and counted on a hemocytometer after staining with Trypan Blue.

[3] = tested on: melanocytes; assay: AKT phosphorylation and toxicity in cultured melanocytes; assay type: cell-based; settings: data not shown
[4] = tested on: AKT association with HSP90; assay: AKT association with HSP90, immunoprecipitation from melanoma cells; assay type: cell-based, human; settings: 10.micro.M, 4 h
Protocol: FIG. 6 describes the effect of BI-69A11 on phosphorylation and total levels of AKT in UACC 903 (PTEN−) cells. (A) UACC903 and the modified clone 29-1 (PTEN+) cells were exposed to 10 micro.M BI-69A11 and 50 micro.M LY294002 (a PI3K inhibitor) and the levels of pAKT473 and total AKT determined by western analysis. […] (SF=Serum Free). (B) BI-69A11 inhibits PRAS40 phosphorylation. UACC903 melanoma cells or 29-1 cells (PTEN+) were subjected to treatment with IGF-1 (20 ng/mL) and the level of PRAS40 phosphorylation was assessed. […] The cells were collected, lysed and levels of pPRAS40 and total PRAS40 determined by western analysis. (C) AKT association with HSP90 is inhibited by BI-69A11. Human melanoma cells were treated with BI-69A11 (10.micro.M) or DMSO control for 4 h, followed by protein preparation and immunoprecipitation using antibodies to pan-AKT. MG132 treatment, when used, initiated 1 h prior to treatment and lasted up to the preparation of proteins (total of 5 h). The right panel depicts analysis of total lysates.
Among cellular proteins implicated in the regulation of AKT levels is the cellular chaperone HSP90. […] Thus we assessed whether association of AKT with HSP90 could be affected by BI-69A11. […]

[5] = tested on: p53; assay: Levels of HSP90 client protein p53; assay type: cell-based; settings: data not shown
Source text: Among cellular proteins implicated in the regulation of AKT levels is the cellular chaperone HSP90. Inhibition of HSP90 chaperone function, as commonly achieved by the geldanamycin antibiotic, interferes with the conformational maturation and refolding of its associated proteins, thereby promoting their degradation (Munster et al., 2002; Neckers and Neckers, 2003). […] Thus we assessed whether association of AKT with HSP90 could be affected by BI-69A11. Immunoprecipitation of AKT from melanoma cells identified HSP90 in the immunoprecipitated material. Such association was however abolished following treatment with the BI-69A11 inhibitor (FIG. 6C). […] To this end, we also performed the experiment in the presence of the proteasome inhibitor MG132.

[6] = tested on: UACC903 melanoma cells; assay: Cell death by trypan blue exclusion in UACC903 compared with 29-1 cells; assay type: cell-based, human
Protocol: (A) 903 and 29-1 cells were exposed to different concentrations of BI-69A11 or UV light as a positive control and the percentage of cell death determined by trypan blue exclusion assay. (B) PARP cleavage was determined in 903 and 29-1 cells after treatment with BI-69A11 at 2, 4 and 6 hours.
Since AKT activity is important for tumor cell survival, its inhibition is expected to result in cell death. We thus monitored cell death in melanoma cells that were treated with BI-69A11.
For the proliferation assays, cells were treated as described above. However, instead of scraping cells into the serum-free medium, floating cells were collected in a 15 mL centrifuge tube whereas adherent cells trypsinized gently. The total cell population was pooled and counted on a hemocytometer after staining with Trypan Blue. The percentage of dead cells was determined by calculating the number of dead cells/total cells X 100. This experiment was performed two times each in triplicate.

[7] = tested on: NF-kB pathway; assay: TNF-α stimulated NF-kB pathway (IKK, IkB) western analysis in UACC903 cells; assay type: cell-based, human; settings: 10 μM for 1 h prior to 20 ng/ml TNF-α
Protocol: UACC903 melanoma cells were exposed to 10 μM BI-69A11 or vehicle control for 1 h prior to treatment with 20 ng/ml TNF-α. Cells were harvested at the indicated time points and whole cell lysates were subjected to western analysis for phosphorylated IKK, total IKK, phosphorylated IkB, total IkB, and PLCγ (as loading control).
FIG. 11 describes how selected BI-69A11 analogs inhibit the NFkB pathway. UACC903 melanoma cells were exposed to vehicle control, 10 μM BI-69A11, or 10 μM analog for 1 h prior to stimulation with 20 ng/ml TNF-α as indicated. Cells were harvested at 5 min post-stimulation and whole cell lysates were subjected to western analysis for phosphorylated IKK, total IKK, phosphorylated IkB, total IkB, and […] (as loading control).
We first tested whether BI-69A11 inhibited the activation of the canonical NF-kB pathway (FIG. 10) in intact cells. […] In contrast, in cells treated with BI-69A11, both IKK and IkB phosphorylation were inhibited in response to TNF-a stimulation. Furthermore, the degradation of IkB protein was inhibited.
We next tested the ability of selected BI-69A11 analogs to inhibit the NF-kB pathway (FIG. 11). In this experiment, UACC903 cells were treated with vehicle, BI-69A11 or analog, stimulated with TNF-a, and harvested at 5 minutes post-stimulation. […]

## O=C(/C=C/c1nc2ccccc2[nH]1)c1c(O)nc2ccc(Cl)cc2c1-c1ccccc1 [Compound 2, (E)-3-(3-(1H-benzo[d]imidazol-2-yl)acryloyl)-6-chloro-4-phenylquinolin-2(1H)-one]
[1]; 3 micro.M, 4 h
  AKT phosphorylation on S473: partial inhibition
[1]; 5 and 10 micro.M
  AKT protein levels: reduced levels of AKT protein
[1]; 5 and 10 micro.M, 4 h
  basal level of AKT phosphorylation: effectively inhibited
[1]; low doses (<0.3 micro.M), 4 h
  AKT phosphorylation: did not affect
[2]; 3 micro.M, within 24 hours
  cell death: about 60%
[2]; 5 micro.M, within 4 hours
  cell death: about 25%
[3]; coincided with cell death
  AKT phosphorylation in growth factor-maintained melanocytes: efficient inhibition of AKT phosphorylation
[3]; deprived for 24 h
  toxic effect on melanocytes deprived of growth factors: no longer elicit toxic effect
[4]
  AKT association with HSP90: abolished
[5]
  level of p53: limited effect
[6]; FIG. 7A
  cell death, PTEN mutant melanoma cells compared with 29-1 cells: more pronounced on PTEN mutant melanoma cells
[6]; concentrations as low as 1 micro.M, within 24 hours
  cell death of melanoma cells: effective cell death
[7]
  degradation of IkB protein: inhibited
[7]; time course
  IKK and IkB phosphorylation in response to TNF-a stimulation: inhibited

— patent US20120190707A1, “SELECTIVE INHIBITORS OF AKT AND METHODS OF USING SAME” (priority 2008, published 2012)
